# Laboratory results: patent publication US20110136990A1, “POLYMER DERIVATIVE OF DOCETAXEL, METHOD OF PREPARING THE SAME AND USES THEREOF” (priority 2008, published 2011)
# Tests used:
# Assay type in all cases: in vivo
# [1] = test system: human prostate cancer PC-3 cells; assay: Drug efficacy test using human prostate cancer PC-3 cells (tumor volume); settings: nude mice, PC-3 xenograft, 15 mg/kg, tail vein every four days, three times
# Protocol: Using the polymer derivative of docetaxel (PEG-pAsp-14DTX) obtained in Example 1, the following experiment was carried out. PC-3 cells were purchased from ATCC through Summit Pharmaceuticals International Corporation. PC-3 cells were cultured in a RPMI1640+10% FBS medium at 5% CO2 and 37° C., and grown to the cell number required for xenograft. The cells were suspended in physiological saline, and inoculated subcutaneously at the back of the male nude mice [Balb nu/nu, 5 week-old, Charles River Laboratories Japan, Inc.] to 3×10^6 cells/100 μl per mouse. Then, the nude mice were kept for 15 days, and drug administration was started when the tumor volume reached 81.6±5.0 mm^3 (mean±SE, in which SE represents the standard error, the same shall apply hereinafter). […] For the following four groups (n=8), changes in tumor volume and body weight over time were determined: (1) Control group (untreated), (2) 15 mg/kg of a DMSO solution of docetaxel group, (3) 15 mg/kg of PEG-pAsp-14DTX group, and (4) 20 mg/kg of PEG-pAsp-14DTX group (the dosage was the converted amount of docetaxel mg/kg/injection). […] For tumor volume, the major dimension (a mm) and the minor dimension (b mm) were measured with an electronic caliper [Mitsutoyo Corporation], and the volume was calculated according to the following equation. […]
# [2] = Changes in body weight of mice bearing PC-3 cells; settings: nude mice bearing PC-3, 15 mg/kg, tail vein every four days, three times
# Protocol: Using the polymer derivative of docetaxel (PEG-pAsp-14DTX) obtained in Example 1, the following experiment was carried out. PC-3 cells were purchased from ATCC through Summit Pharmaceuticals International Corporation. PC-3 cells were cultured in a RPMI1640+10% FBS medium at 5% CO2 and 37° C., and grown to the cell number required for xenograft. The cells were suspended in physiological saline, and inoculated subcutaneously at the back of the male nude mice [Balb nu/nu, 5 week-old, Charles River Laboratories Japan, Inc.] to 3×10^6 cells/100 μl per mouse. Then, the nude mice were kept for 15 days, and drug administration was started when the tumor volume reached 81.6±5.0 mm^3 (mean±SE, in which SE represents the standard error, the same shall apply hereinafter). […] For the following four groups (n=8), changes in tumor volume and body weight over time were determined: (1) Control group (untreated), (2) 15 mg/kg of a DMSO solution of docetaxel group, (3) 15 mg/kg of PEG-pAsp-14DTX group, and (4) 20 mg/kg of PEG-pAsp-14DTX group (the dosage was the converted amount of docetaxel mg/kg/injection). […] For tumor volume, the major dimension (a mm) and the minor dimension (b mm) were measured with an electronic caliper [Mitsutoyo Corporation], and the volume was calculated according to the following equation.
# [3] = Pharmacokinetic study in mice (plasma levels of DTX); settings: male Balb/c mice, tail vein, 10 mg/kg, 5 minutes to 48 hours
# Protocol: Ten mg in terms of DTX of the polymer derivative of docetaxel (PEG-pAsp-14DTX) obtained in Example 1 was precisely weighed into a sample vial, to which 1 ml of purified water was added to suspend the sample. After stirring at 4° C. for a whole day and night, it was sonicated under ice cooling for 10 minutes using a Biodisruptor (Nihon Seiki Seisakusho, High Power Unit), filtered with a 0.22 μm filter [Millipore, Millex (registered trademark) GP PES], and the filtrate was collected. The filtrate was gel-filtered (GE Healthcare Bioscience, PD-10, the elution solution: a 10% sucrose solution), and the collected polymer micelle fraction (the mean particle size 120 nm) was used in the following experiment. […]
# DTX in the polymer-bound form was hydrolyzed to a free form, and total DTX was determined as follows. […] This was loaded in a HPLC sample vial and analyzed by HPLC under the following condition. The content of DTX was calculated based on the ratio of the peak area of DTX relative to the peak area derived from paclitaxel, which was used as the internal standard.
# To 50 μl of the collected plasma, 20 μl of paclitaxel/50% acetonitrile (20 μg/mL) as the internal standard and 300 μl of ethyl acetate were added in this order, and stirred vigorously for one minute at room temperature. […] This was loaded in a HPLC sample vial and analyzed by HPLC […]
changes in plasma levels with time (docetaxel) [3],SMILES,tumor growth compared to control group [1],reduction in body weight [2]
–,"CC(=O)O[C@@]12CO[C@@H]1C[C@H](O)[C@@]1(C)C(=O)[C@H](O)C3=C(C)[C@@H](OC(=O)[C@H](O)[C@@H](NC(=O)OC(C)(C)C)c4ccccc4)C[C@@](O)([C@@H](OC(=O)c4ccccc4)[C@H]21)C3(C)C [DMSO solution of docetaxel, docetaxel]",tumor growth was markedly suppressed,marked reduction in body weight
disappears rapidly,"CC(=O)O[C@@]12CO[C@@H]1C[C@H](O)[C@@]1(C)C(=O)[C@H](O)C3=C(C)[C@@H](OC(=O)[C@H](O)[C@@H](NC(=O)OC(C)(C)C)c4ccccc4)C[C@@](O)([C@@H](OC(=O)c4ccccc4)[C@H]21)C3(C)C [docetaxel solution, docetaxel]",–,–
